From ChEMBL document CHEMBL1156881, “Inhibition of monoamine oxidase by 8-benzyloxycaffeine analogues” (Bioorg Med Chem, 2010)
pIC50, pKi: −log10 of the molar value. Activity calls are given as the source filed them. The rule behind the calls is not given here.

Columns and labels:
[1] = target: T1, Amine oxidase [flavin-containing] A (Homo sapiens, UniProt P21397); test: Inhibition of human recombinant MAOA assessed as 4-hydroxyquinoline formation by fluorimetry
T1 sequence (P21397 whole entry): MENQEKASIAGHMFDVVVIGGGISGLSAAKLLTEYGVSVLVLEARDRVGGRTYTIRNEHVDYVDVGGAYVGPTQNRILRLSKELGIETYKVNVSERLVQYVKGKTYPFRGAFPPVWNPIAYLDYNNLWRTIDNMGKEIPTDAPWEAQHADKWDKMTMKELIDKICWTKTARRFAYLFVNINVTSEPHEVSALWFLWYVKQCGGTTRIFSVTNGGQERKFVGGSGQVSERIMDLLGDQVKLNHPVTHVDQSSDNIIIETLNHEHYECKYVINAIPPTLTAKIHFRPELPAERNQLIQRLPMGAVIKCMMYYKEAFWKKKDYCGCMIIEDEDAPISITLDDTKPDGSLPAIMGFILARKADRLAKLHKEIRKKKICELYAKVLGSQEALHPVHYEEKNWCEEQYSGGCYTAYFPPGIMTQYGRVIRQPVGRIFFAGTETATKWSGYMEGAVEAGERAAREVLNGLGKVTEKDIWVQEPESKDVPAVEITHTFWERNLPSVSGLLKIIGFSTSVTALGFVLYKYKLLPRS

Homo sapiens = species on record: Homo sapiens; test: Selectivity for human recombinant MAOA over human recombinant MAOB
[2] = Inhibition of MAOB in baboon liver mitochondria assessed as MMDP+ production by spectrophotometry; set-up: species or system Papio hamadryas
[3] = target: T2, Amine oxidase [flavin-containing] B (Homo sapiens, UniProt P27338); test: Inhibition of human recombinant MAOB assessed as 4-hydroxyquinoline formation by fluorimetry
T2 sequence (P27338 whole entry): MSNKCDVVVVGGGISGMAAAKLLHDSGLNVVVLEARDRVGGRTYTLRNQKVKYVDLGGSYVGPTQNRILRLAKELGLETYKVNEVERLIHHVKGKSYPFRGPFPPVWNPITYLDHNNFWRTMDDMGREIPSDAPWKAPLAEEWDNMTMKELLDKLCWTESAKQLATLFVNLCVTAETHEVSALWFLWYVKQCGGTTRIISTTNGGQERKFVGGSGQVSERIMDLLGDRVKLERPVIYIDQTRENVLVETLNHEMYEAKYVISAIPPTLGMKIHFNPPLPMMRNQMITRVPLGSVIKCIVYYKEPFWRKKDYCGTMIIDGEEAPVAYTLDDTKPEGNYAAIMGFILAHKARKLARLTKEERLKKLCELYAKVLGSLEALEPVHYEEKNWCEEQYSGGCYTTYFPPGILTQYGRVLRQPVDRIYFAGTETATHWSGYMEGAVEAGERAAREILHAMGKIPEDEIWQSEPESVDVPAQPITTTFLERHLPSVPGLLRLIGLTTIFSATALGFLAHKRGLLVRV

[4] = target: T2, Amine oxidase [flavin-containing] B; test: Competitive inhibition of human recombinant MAOB by Lineweaver-Burke plot
[5] = target: T1, Amine oxidase [flavin-containing] A; test: Reversible inhibition of human recombinant MAOA assessed as 4-hydroxyquinoline formation by fluorimetry
[6] = target: T1, Amine oxidase [flavin-containing] A; test: Competitive inhibition of human recombinant MAOA by Lineweaver-Burke plot
Papio hamadryas [7] = species on record: Papio hamadryas; test: Competitive inhibition of MAOB in baboon liver mitochondria by Lineweaver-Burke plot
Papio hamadryas [8] = species on record: Papio hamadryas; test: Reversible inhibition of MAOB in baboon liver mitochondria at 0.28 uM assessed as MMDP+ production by spectrophotometry
[9] = target: T2, Amine oxidase [flavin-containing] B; test: Reversible inhibition of human recombinant MAOB at 0.23 uM assessed as 4-hydroxyquinoline formation by fluorimetry
[10] = target: T1, Amine oxidase [flavin-containing] A; test: Reversible inhibition of human recombinant MAOA at 1.31 uM assessed as 4-hydroxyquinoline formation by fluorimetry

Row | SMILES | pIC50 [1] | pKi [1] | Ratio Ki (Homo sapiens) | pIC50 [2] | pKi [2] | pIC50 [3] | pKi [3] | inhibition (INH) [4] | inhibition (INH) [5] | inhibition (INH) [6] | inhibition (Papio hamadryas [7]) | inhibition (Papio hamadryas [8]) | inhibition (INH) [9] | inhibition (INH) [10]
1 | COc1cccc(COc2nc3c(c(=O)n(C)c(=O)n3C)n2C)c1 | 6.00 | 6.47 | 0.31 | 5.80 | 6.04 | 5.50 | 5.96 | – | – | – | – | – | – | –
2 | Cc1cccc(COc2nc3c(c(=O)n(C)c(=O)n3C)n2C)c1 | 6.26 | 6.74 | 1.29 | 6.16 | 6.40 | 6.40 | 6.85 | – | – | – | – | – | – | –
3 | Cn1c(=O)c2c(nc(OCc3cccc(Br)c3)n2C)n(C)c1=O | 7.17 | 7.64 | 0.069 | 6.95 | 7.19 | 6.03 | 6.48 | – | – | – | – | – | – | –
4 | Cn1c(=O)c2c(nc(OCc3cccc(Cl)c3)n2C)n(C)c1=O | 6.97 | 7.44 | 0.16 | 6.92 | 7.16 | 6.18 | 6.64 | – | – | – | – | Active | Active | Active
5 | Cn1c(=O)c2c(nc(OCc3cccc(F)c3)n2C)n(C)c1=O | 6.27 | 6.74 | 0.49 | 6.27 | 6.51 | 5.97 | 6.43 | – | – | – | – | – | – | –

More lines, in order of rising pIC50 [1], values ahead:

Row | pIC50 [1] | pKi [1] | Ratio Ki (Homo sapiens) | pIC50 [2] | pKi [2] | pIC50 [3] | pKi [3] | inhibition (INH) [4] | inhibition (INH) [5] | inhibition (INH) [6] | inhibition (Papio hamadryas [7]) | inhibition (Papio hamadryas [8]) | inhibition (INH) [9] | inhibition (INH) [10] | SMILES
6 | 5.75 | 6.23 | 1.37 | 5.60 | 5.84 | 5.91 | 6.37 | – | – | – | – | – | – | – | Cn1c(=O)c2c(nc(OCc3ccccc3)n2C)n(C)c1=O
7 | 6.82 | 7.29 | 0.039 | 6.95 | 7.19 | 5.43 | 5.89 | Active | Active | Active | Active | – | – | – | Cn1c(=O)c2c(nc(OCc3cccc(C(F)(F)F)c3)n2C)n(C)c1=O
